Source: ChEMBL document CHEMBL3045556, “Effect of temperature on the toxicity of several insecticides to Apolygus lucorum (Heteroptera: Miridae)” (2012)
In brackets after ≈: the same amount, converted by molar mass.

How the values were obtained:
Type in all cases: functional
Apolygus lucorum [1] = test: Ratio of LC50 for third-instar Apolygus lucorum reared in asparagus bean pod at 15 degC to LC50 for third-instar Apolygus lucorum reared in asparagus bean pod at 20 degC
Apolygus lucorum [2] = test: Insecticidal activity against third-instar Apolygus lucorum reared in asparagus bean pod assessed as mortality administered by dipping pods in compound solution measured after 48 hr at 35 degC
Apolygus lucorum [3] = test: Insecticidal activity against third-instar Apolygus lucorum reared in asparagus bean pod assessed as mortality administered by dipping pods in compound solution measured after 48 hr at 30 degC
Apolygus lucorum [4] = test: Insecticidal activity against third-instar Apolygus lucorum reared in asparagus bean pod assessed as mortality administered by dipping pods in compound solution measured after 48 hr at 25 degC
Apolygus lucorum [5] = test: Insecticidal activity against third-instar Apolygus lucorum reared in asparagus bean pod assessed as mortality administered by dipping pods in compound solution measured after 48 hr at 20 degC
Apolygus lucorum [6] = test: Insecticidal activity against third-instar Apolygus lucorum reared in asparagus bean pod assessed as mortality administered by dipping pods in compound solution measured after 48 hr at 15 degC
Apolygus lucorum [7] = test: Ratio of LC50 for third-instar Apolygus lucorum reared in asparagus bean pod at 15 degC to LC50 for third-instar Apolygus lucorum reared in asparagus bean pod at 25 degC
Apolygus lucorum [8] = test: Ratio of LC50 for third-instar Apolygus lucorum reared in asparagus bean pod at 15 degC to LC50 for third-instar Apolygus lucorum reared in asparagus bean pod at 35 degC
Apolygus lucorum [9] = test: Ratio of LC50 for third-instar Apolygus lucorum reared in asparagus bean pod at 15 degC to LC50 for third-instar Apolygus lucorum reared in asparagus bean pod at 30 degC
Apolygus lucorum [10] = test: Ratio of LC50 for third-instar Apolygus lucorum reared in asparagus bean pod at 35 degC to LC50 for third-instar Apolygus lucorum reared in asparagus bean pod at 15 degC
Apolygus lucorum [11] = test: Ratio of LC50 for third-instar Apolygus lucorum reared in asparagus bean pod at 30 degC to LC50 for third-instar Apolygus lucorum reared in asparagus bean pod at 15 degC
Apolygus lucorum [12] = test: Ratio of LC50 for third-instar Apolygus lucorum reared in asparagus bean pod at 20 degC to LC50 for third-instar Apolygus lucorum reared in asparagus bean pod at 15 degC
Apolygus lucorum [13] = test: Ratio of LC50 for third-instar Apolygus lucorum reared in asparagus bean pod at 25 degC to LC50 for third-instar Apolygus lucorum reared in asparagus bean pod at 15 degC

| SMILES | RatioLC50 (Apolygus lucorum [1]) | LC50 (Apolygus lucorum [2]) [µg/mL] | LC50 (Apolygus lucorum [3]) [µg/mL] | LC50 (Apolygus lucorum [4]) [µg/mL] | LC50 (Apolygus lucorum [5]) [µg/mL] | LC50 (Apolygus lucorum [6]) [µg/mL] | RatioLC50 (Apolygus lucorum [7]) | RatioLC50 (Apolygus lucorum [8]) | RatioLC50 (Apolygus lucorum [9]) | RatioLC50 (Apolygus lucorum [10]) | RatioLC50 (Apolygus lucorum [11]) | RatioLC50 (Apolygus lucorum [12]) | RatioLC50 (Apolygus lucorum [13]) |
| --- | --- | --- | --- | --- | --- | --- | --- | --- | --- | --- | --- | --- | --- |
| C/C(=N\C#N)N(C)Cc1ccc(Cl)nc1 [ACETAMIPRID] | 1.66 | 181.95 (≈ 817 µM) | 264.02 (≈ 1190 µM) | 420.95 (≈ 1890 µM) | 972.05 (≈ 4370 µM) | 1613.76 (≈ 7250 µM) | 3.83 | 8.87 | 6.11 |  |  |  |  |
| CC1(C)[C@H](C=C(Cl)Cl)[C@H]1C(=O)O[C@@H](C#N)c1cccc(Oc2ccccc2)c1 [BETA-CYPERMETHRIN] |  | 20.78 (≈ 49.9 µM) | 28.44 (≈ 68.3 µM) | 11.83 (≈ 28.4 µM) | 14.86 (≈ 35.7 µM) | 0.4 (≈ 0.961 µM) |  |  |  | 51.35 | 70.27 | 36.72 | 29.23 |
| CCCCN(CCCC)SN(C)C(=O)Oc1cccc2c1OC(C)(C)C2 [CARBOSULFAN] | 2.36 | 156.75 (≈ 412 µM) | 246.4 (≈ 647 µM) | 199.4 (≈ 524 µM) | 116.07 (≈ 305 µM) | 274.15 (≈ 720 µM) | 1.37 | 1.75 | 1.12 |  |  |  |  |
| N#Cc1nn(-c2c(Cl)cc(C(F)(F)F)cc2Cl)c(N)c1[S+]([O-])C(F)(F)F (configuration not stated) [FIPRONIL] |  | 0.1 (≈ 0.229 µM) | 0.33 (≈ 0.755 µM) | 0.72 (≈ 1.65 µM) | 1.69 (≈ 3.87 µM) | 0.34 (≈ 0.778 µM) |  | 3.4 | 1.03 |  |  | 5.76 | 2.12 |
| CC1(C)C(/C=C(\Cl)C(F)(F)F)C1C(=O)O[C@@H](C#N)c1cccc(Oc2ccccc2)c1 (some centres not stated) [GAMA-CYHALOTHRIN] |  | 95.03 (≈ 211 µM) | 72.22 (≈ 161 µM) | 27.96 (≈ 62.2 µM) | 25.6 (≈ 56.9 µM) | 25.28 (≈ 56.2 µM) |  |  |  | 3.76 | 2.86 | 1.01 | 1.11 |
| O=[N+]([O-])/N=C1\NCCN1Cc1ccc(Cl)nc1 [IMIDACLOPRID] | 2.2 | 148.05 (≈ 579 µM) | 238.47 (≈ 933 µM) | 1025.9 (≈ 4010 µM) | 1507.97 (≈ 5900 µM) | 3324.02 (≈ 13000 µM) | 3.24 | 22.45 | 13.94 |  |  |  |  |
| CNC(=O)ON=C(C)SC [METHOMYL] |  | 731.98 (≈ 4510 µM) | 1108.75 (≈ 6840 µM) | 895.41 (≈ 5520 µM) | 564.28 (≈ 3480 µM) | 482.96 (≈ 2980 µM) |  |  |  | 1.52 | 2.3 | 1.17 | 1.85 |
| CCOP(=S)(OCC)O/N=C(\C#N)c1ccccc1 [PHOXIM] | 1.27 | 173.53 (≈ 582 µM) | 196.5 (≈ 659 µM) | 237.93 (≈ 798 µM) | 156.17 (≈ 524 µM) | 198.24 (≈ 665 µM) |  | 1.14 | 1.01 |  |  |  | 1.2 |
